Values after ≈ are worked out from the molar mass of the structure shown. Like-named read-outs stand apart in the source and are kept apart here.
Key:
[1] = system: Serratia marcescens ATCC 8100; assay: minimum inhibitory concentration (agar plate growth inhibition); format: cell-based
Experimental: (§1) The mixture or composition prepared as in Example 1 was tested to determine the minimum inhibitory concentration (MIC) of the composition against various microorganisms (i.e., bacteria, yeast and fungi) according to the following procedure:
(§2) (1) Tryptic Soy Agar (TSA) was prepared according to the manufacturer's directions by suspending 40 g TSA in cold deionized water (1 liter). The suspension was heated to boiling in order to dissolve completely and then autoclaved for 15 minutes at 15 pounds pressure at 121° C.
(§3) (2) After autoclaving, the media was cooled to 45° C. in a water bath.
(§4) (3) At this point, the mixture was aseptically added to the TSA at different levels in order to obtain the desired test concentrations.
(§5) (1) The bacteria and yeast inoculum consisted of 0.1 ml of a 1:100 saline dilution of an overnight TSB broth culture (10-10 CFU/ml). CFU=Colony Forming Units.
(§6) (3) A sterile Dacron swab was used to spread the inoculum evenly over the entire agar surface.
(§7) (1) The bacteria and yeast plates were incubated at 35° C. for 48 hours.

[2] = system: Pseudomonas aeruginosa ATCC 15442; assay: as above; format: cell-based
Experimental: as §1, §2, §3, §4, §5, §6, §7

[3] = system: Salmonella typhosa ATCC 6539; assay: as above; format: cell-based; settings: Salmonella enterica, 48 h
Experimental: as §1, §2, §3, §4, §5, §6, §7

[4] = system: Pseudomonas aeruginosa ATCC 14502; assay: as above; format: cell-based
Experimental: as §1, §2, §3, §4, §5, §6, §7

[5] = system: Staphylococcus epidermidis ATCC 1228; assay: as above; format: cell-based
Experimental: as §1, §2, §3, §4, §5, §6, §7

[6] = system: Pseudomonas stutzeri; assay: as above; format: cell-based; settings: Stutzerimonas stutzeri, 48 h
Experimental: as §1, §2, §3, §4, §5, §6, §7

[7] = system: Pseudomonas aeruginosa ATCC 13388; assay: as above; format: cell-based
Experimental: as §1, §2, §3, §4, §5, §6, §7

[8] = system: Saccharomyces cerevisiae; assay: as above; format: cell-based; settings: 48 h
Experimental: as §1, §2, §3, §4, §5, §6, §7

[9] = system: Candida albicans ATCC 10231; assay: as above; format: cell-based
Experimental: as §1, §2, §3, §4, §5, §6, §7

[10] = system: Bacillus subtilis ATCC 6633; assay: as above; format: cell-based
Experimental: as §1, §2, §3, §4, §5, §6, §7

[11] = system: Klebsiella pneumoniae ATCC 8308; assay: as above; format: cell-based
Experimental: as §1, §2, §3, §4, §5, §6, §7

[12] = system: Proteus vulgaris ATCC 13315; assay: as above; format: cell-based
Experimental: as §1, §2, §3, §4, §5, §6, §7

[13] = system: Streptococcus faecalis; assay: as above; format: cell-based; settings: Enterococcus faecalis, 48 h
Experimental: as §1, §2, §3, §4, §5, §6, §7

[14] = system: Enterobacter cloacae ATCC 23355; assay: as above; format: cell-based
Experimental: as §1, §2, §3, §4, §5, §6, §7

[15] = system: Pseudomonas aeruginosa ATCC 9027; assay: as above; format: cell-based
Experimental: as §1, §2, §3, §4, §5, §6, §7

[16] = system: Staphylococcus aureus ATCC 6538; assay: as above; format: cell-based
Experimental: as §1, §2, §3, §4, §5, §6, §7

[17] = system: Escherichia coli ATCC 8739; assay: as above; format: cell-based
Experimental: as §1, §2, §3, §4, §5, §6, §7

[18] = system: Aspergillus niger ATCC 9642; assay: as above; format: cell-based
Experimental: as §1, §2, §3, §4
(§8) (2) The fungus inoculum consisted of 0.1 ml of a spore-saline suspension harvested by gently rubbing the spores from a 1-week old Sabourand dextrose agar slant incubated at 25° C. with sterile saline (10-10 CFU/ml).
as §6
(§9) (2) The fungus plates were incubated at 30° C. for 72-96 hours.

[19] = system: Trichophyton mentagrophytes; assay: as above; format: cell-based
Experimental: as §1, §2, §3, §4, §8, §6, §9

[20] = system: Penicillium chrysogenum ATCC 9480; assay: as above; format: cell-based
Experimental: as §1, §2, §3, §4, §8, §6, §9

[21] = physchem; settings: water
[22] = water solubility
[23] = ATCC8100, TSA, 35° C., 48 h, read-out: MIC
[24] = ATCC15442, TSA, 35° C., 48 h, read-out: MIC
[25] = ATCC14502, TSA, 35° C., 48 h, read-out: MIC
[26] = ATCC1228, TSA, 35° C., 48 h, read-out: MIC
[27] = ATCC13388, TSA, 35° C., 48 h, read-out: MIC
[28] = ATCC10231, TSA, 35° C., 48 h, read-out: MIC
[29] = ATCC6633, TSA, 35° C., 48 h, read-out: MIC
[30] = ATCC8308, TSA, 35° C., 48 h, read-out: MIC
[31] = ATCC13315, TSA, 35° C., 48 h, read-out: MIC
[32] = ATCC23355, TSA, 35° C., 48 h, read-out: MIC
[33] = ATCC9027, TSA, 35° C., 48 h, read-out: MIC
[34] = ATCC6538, TSA, 35° C., 48 h, read-out: MIC
[35] = ATCC8739, TSA, 35° C., 48 h, read-out: MIC
[36] = ATCC9642, TSA, 30° C., 72-96 h, read-out: MIC
[37] = TSA, 30° C., 72-96 h, read-out: MIC
[38] = ATCC9480, TSA, 30° C., 72-96 h, read-out: MIC

SMILES | MIC [1, 23] [µg/mL] | MIC [2, 24] [µg/mL] | MIC [3] [µg/mL] | MIC [4, 25] [µg/mL] | MIC [5, 26] [µg/mL] | MIC ([6]; TSA, 35° C., read-out: MIC) [µg/mL] | MIC [7, 27] [µg/mL] | MIC ([8]; TSA, 35° C., read-out: MIC) [µg/mL] | MIC [9, 28] [µg/mL] | MIC [10, 29] [µg/mL] | MIC [11, 30] [µg/mL] | MIC [12, 31] [µg/mL] | MIC ([13]; TSA, 35° C., read-out: MIC) [µg/mL] | MIC [14, 32] [µg/mL] | MIC [15, 33] [µg/mL] | MIC [16, 34] [µg/mL] | MIC [17, 35] [µg/mL] | MIC [18, 36] [µg/mL] | MIC [19, 37] [µg/mL] | MIC [20, 38] [µg/mL] | also measured
CC(C)COC(=O)c1ccc(O)cc1 [Isobutyl p-Hydroxybenzoate, isobutyl p-hydroxybenzoate] | 1000 (≈ 5150 µM) | > 1000 | 1000 (≈ 5150 µM) | > 1000 | 250 (≈ 1290 µM) | > 1000 | > 1000 | 125 (≈ 644 µM) | 125 (≈ 644 µM) | 250 (≈ 1290 µM) | 500 (≈ 2570 µM) | 250 (≈ 1290 µM) | 500 (≈ 2570 µM) | 1000 (≈ 5150 µM) | > 1000 | 250 (≈ 1290 µM) | > 1000 | 250 (≈ 1290 µM) | 63 (≈ 324 µM) | 125 (≈ 644 µM) | solubility [21]: 200 µg/mL (≈ 1030 µM)
CC(C)OC(=O)c1ccc(O)cc1 [Isopropyl p-Hydroxybenzoate, isopropyl p-hydroxybenzoate] | 1000 (≈ 5550 µM) | > 2000 | 1000 (≈ 5550 µM) | > 2000 | 500 (≈ 2770 µM) | 1000 (≈ 5550 µM) | > 2000 | < 125 | 250 (≈ 1390 µM) | 500 (≈ 2770 µM) | 500 (≈ 2770 µM) | 500 (≈ 2770 µM) | 1000 (≈ 5550 µM) | 1000 (≈ 5550 µM) | 2000 (≈ 11100 µM) | 1000 (≈ 5550 µM) | 1000 (≈ 5550 µM) | 250 (≈ 1390 µM) | < 125 | < 125 | solubility [21]: 800 µg/mL (≈ 4440 µM)
CCCCOC(=O)c1ccc(O)cc1 [n-Butyl p-Hydroxybenzoate, n-butyl p-hydroxybenzoate] | – | – | 500 (≈ 2570 µM) | – | – | – | – | – | – | – | – | – | – | – | – | – | – | – | – | – | MIC ([1]; ATCC8100, 48 h): 500 µg/mL (≈ 2570 µM); MIC ([2]; ATCC15442, 48 h): > 6000 µg/mL; MIC ([4]; ATCC14502, 48 h): > 6000 µg/mL; MIC ([5]; ATCC1228, 48 h): 250 µg/mL (≈ 1290 µM); MIC [6]: 500 µg/mL (≈ 2570 µM); MIC ([7]; ATCC13388, 48 h): > 6000 µg/mL; MIC [8]: 32 µg/mL (≈ 165 µM); MIC ([9]; ATCC10231, 48 h): 125 µg/mL (≈ 644 µM); MIC ([10]; ATCC6633, 48 h): 250 µg/mL (≈ 1290 µM); MIC ([11]; ATCC8308, 48 h): 250 µg/mL (≈ 1290 µM); MIC ([12]; ATCC13315, 48 h): 125 µg/mL (≈ 644 µM); MIC [13]: 250 µg/mL (≈ 1290 µM); MIC ([14]; ATCC23355, 48 h): 250 µg/mL (≈ 1290 µM); MIC ([15]; ATCC9027, 48 h): > 6000 µg/mL; MIC ([16]; ATCC6538, 48 h): 125 µg/mL (≈ 644 µM); MIC ([17]; ATCC8739, 48 h): 500 µg/mL (≈ 2570 µM); MIC ([18]; ATCC9642): 125 µg/mL (≈ 644 µM); MIC [19]: 32 µg/mL (≈ 165 µM); MIC ([20]; ATCC9480): 63 µg/mL (≈ 324 µM); solubility [22]: 150 µg/mL (≈ 772 µM)

Reference: US4496576A, “Compositions of p-hydroxybenzoic acid esters and methods of preparation and use” (priority 1983, dated 1985)
